In one assay the target is T1, Adenosine A1 receptor (Homo sapiens, UniProt P30542).
T1 construct: expressed in transfected cells; host or cells: CHO cell membranes
T1 sequence (P30542 1-326): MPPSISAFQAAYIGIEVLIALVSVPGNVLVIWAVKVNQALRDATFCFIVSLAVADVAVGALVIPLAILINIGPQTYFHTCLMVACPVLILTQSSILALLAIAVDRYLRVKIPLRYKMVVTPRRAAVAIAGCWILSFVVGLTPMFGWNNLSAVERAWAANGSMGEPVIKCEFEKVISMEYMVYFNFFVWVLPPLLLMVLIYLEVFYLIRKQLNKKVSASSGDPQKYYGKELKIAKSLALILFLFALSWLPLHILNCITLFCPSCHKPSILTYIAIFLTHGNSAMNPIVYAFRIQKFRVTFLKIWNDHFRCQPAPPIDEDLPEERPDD
Put plainly: Adenosine receptor TR-FRET binding assay, A1. The conditions noted are these: Table 9, further testing; displacement of 100 nM CA200645, CHO cell membranes. On the procedure:
(§1) All FRET binding experiments were conducted at room temperature in white 384-well plates, in assay binding buffer containing 1× LabMed (Cisbio, France), 100 μg/mL saponin, 1% DMSO and 0.02% pluronic acid. Binding of the fluorescently labelled Adenosine receptor antagonist XAC (CA200645, FRET acceptor) to terbium-labelled A1, A2a, A2b and A3 adenosine receptors (FRET donors) was detected by time-resolved FRET due to the close proximity of the donor and acceptor in a binding event. To investigate the ability of unlabelled test compounds to bind to Adenosine A1, A2a, A2b and A3 receptors, dose response curves were constructed that determined the ability of a range of concentrations to inhibit the binding of 30 nM CA200645 to the A2b receptor and 100 nM CA200645 to the A1, A2a, and A3 receptor.
(§2) Serial dilution (1:3 dilutions) of test compounds in neat DMSO and transfer of a 400 nL sample of test compound into the assay plate was carried out using the Mosquito (TTP Labtech, UK). The compound samples were incubated for 2 hours at room temperature with a fixed concentration of CA200645 defined for each receptor (see above) and CHO cell membranes containing the human Adenosine A1 (0.5 μg/well), A2a (0.3 μg/well), A2b (1 μg/well) or A3 (1 μg/well) receptor in 40 μL of assay buffer. Total and non-specific binding of CA200645 was determined in the absence and presence of 10 μM XAC, respectively.
(§3) Following 2 hours incubation, the level of CA200645 binding was detected on a Pherastar FSX (BMG Labtech, Germany) using standard TR-FRET settings. The terbium donor was excited with three laser flashes at a wavelength of 337 nm, and donor and acceptor emission was detected at 620 nm and 665 nm wavelengths, respectively. FRET ratios were obtained by multiplying the acceptor/donor ratio value by 10,000. Specific binding was determined by subtracting the non-specific binding FRET ratio from the total binding FRET ratio. Compound IC50 curves were analysed using GraphPad Prism 7.0 (GraphPad, USA) and Ki affinity values were determined from the obtained […] values using the method of Cheng and Prusoff.

The target of the next assay is T2, Adenosine A2a receptor (Homo sapiens, UniProt P29274).
T2 construct: expressed in transfected cells; host or cells: CHO cell membranes
Put plainly: Adenosine receptor TR-FRET binding assay, A2a. The conditions noted are these: displacement of 100 nM CA200645, CHO cell membranes. A digest of the protocol: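 Competition TR-FRET binding in CHO cell membranes expressing terbium-labelled human receptors, displacing fluorescent XAC (CA200645; 30 nM for A2b, 100 nM for A1, A2a, A3); 2 h at room temperature with saponin buffer, 1% DMSO. 665/620 nm ratio; non-specific with 10 μM XAC; Ki by Cheng–Prusoff from IC50.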

A further assay has as its target T3, Adenosine A3 receptor (Homo sapiens, UniProt P0DMS8).
T3 construct: expressed in transfected cells; host or cells: CHO cell membranes
T3 sequence (P0DMS8 1-318): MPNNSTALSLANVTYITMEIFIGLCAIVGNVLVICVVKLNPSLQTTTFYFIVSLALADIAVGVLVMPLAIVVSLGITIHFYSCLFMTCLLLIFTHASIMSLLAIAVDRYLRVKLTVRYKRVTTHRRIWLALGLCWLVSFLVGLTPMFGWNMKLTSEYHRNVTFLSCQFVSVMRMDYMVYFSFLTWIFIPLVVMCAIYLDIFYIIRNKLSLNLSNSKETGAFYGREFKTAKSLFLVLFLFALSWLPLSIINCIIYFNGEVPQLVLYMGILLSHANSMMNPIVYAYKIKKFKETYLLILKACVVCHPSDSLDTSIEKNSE
As to the kind of experiment: Adenosine receptor TR-FRET binding assay, A3. As for the experimental part: as §1, §2, §3

The target in a further assay is T4, Adenosine A2b receptor (Homo sapiens, UniProt P29275).
T4 construct: expressed in transfected cells; host or cells: CHO cell membranes
T4 sequence (P29275 1-332): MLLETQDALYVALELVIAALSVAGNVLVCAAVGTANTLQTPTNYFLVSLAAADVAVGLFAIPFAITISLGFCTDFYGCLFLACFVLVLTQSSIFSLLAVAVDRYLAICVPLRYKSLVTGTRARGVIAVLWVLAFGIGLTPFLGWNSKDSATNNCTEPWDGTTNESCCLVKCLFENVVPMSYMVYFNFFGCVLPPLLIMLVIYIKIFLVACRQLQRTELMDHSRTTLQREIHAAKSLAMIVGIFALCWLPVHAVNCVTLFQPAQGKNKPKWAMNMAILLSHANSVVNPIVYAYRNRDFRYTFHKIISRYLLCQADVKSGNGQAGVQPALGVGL
Put plainly: Adenosine receptor TR-FRET binding assay, A2b. The conditions noted are these: Table 9, further testing; displacement of 30 nM CA200645, CHO cell membranes. As for the experimental part: as §1, §2, §3

Where [1] appears, read: Table 9, further testing, displacement of 100 nM CA200645, CHO cell membranes, read-out: A3 Ki.

Each structure is given as a SMILES string. Like-named read-outs stand apart in the source and are kept apart here.

T2 sequence (P29274 whole entry): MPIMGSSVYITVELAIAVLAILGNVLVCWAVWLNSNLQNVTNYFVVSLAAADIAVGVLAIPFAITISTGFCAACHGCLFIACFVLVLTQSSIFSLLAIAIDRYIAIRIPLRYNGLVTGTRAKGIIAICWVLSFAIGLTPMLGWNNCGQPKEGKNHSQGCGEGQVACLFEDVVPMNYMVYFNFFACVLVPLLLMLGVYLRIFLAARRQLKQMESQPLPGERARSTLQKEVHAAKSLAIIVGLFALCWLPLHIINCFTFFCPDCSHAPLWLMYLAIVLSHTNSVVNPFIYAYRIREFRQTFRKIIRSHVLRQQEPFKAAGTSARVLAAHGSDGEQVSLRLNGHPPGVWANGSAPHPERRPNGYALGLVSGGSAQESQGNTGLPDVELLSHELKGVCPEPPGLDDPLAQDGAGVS

For `Nc1nc(-c2ccco2)ncc1C(=O)NCc1ncccc1C(F)(F)F` [Example 5.30, 4-Amino-2-(2-furyl)-N-[[3-(trifluoromethyl)-2-pyridyl]methyl]pyrimidine-5-carboxamide], the Ki worked out at 4.75 µM at Adenosine A1 receptor; 0.0027 µM at Adenosine A2a receptor (Table 9, further testing); 2.3 µM on Adenosine A3 receptor; 2.35 µM at Adenosine A2b receptor.

As for `Cc1cccc(CNC(=O)c2cnc(-c3ccco3)nc2N)n1` [Example 5.32, 4-Amino-2-(2-furyl)-N-[(6-methyl-2-pyridyl)methyl]pyrimidine-5-carboxamide], the Ki worked out at 1.89 µM on Adenosine A1 receptor; 0.0033 µM at Adenosine A2a receptor (Table 9, further testing); 1.41 µM at Adenosine A3 receptor (setting [1]); 0.437 µM on Adenosine A2b receptor.

As to `Cc1cccc(CNC(=O)c2cnc(-c3ccco3)nc2N)c1` [Example 5.34, 4-Amino-2-(2-furyl)-N-(m-tolylmethyl) pyrimidine-5-carboxamide], the Ki at Adenosine A1 receptor was 1.04 µM; at Adenosine A2a receptor (Table 9, further testing) it was 0.01 µM; on Adenosine A3 receptor (setting [1]), 1.91 µM; at Adenosine A2b receptor, 1.41 µM.

As to `Nc1nc(-c2ccco2)ncc1C(=O)NCc1ccccc1C(F)F` [Example 5.35, 4-Amino-N-[[2-(difluoromethyl)phenyl]methyl]-2-(2-furyl)pyrimidine-5-carboxamide], the Ki came out at 2.62 µM at Adenosine A1 receptor; 0.012 µM on Adenosine A2a receptor (Table 9, further testing); 2.8 µM on Adenosine A3 receptor (setting [1]); 1.33 µM at Adenosine A2b receptor.

`Cc1cc(C)cc(CNC(=O)c2cnc(-c3ccco3)nc2N)c1` [Example 5.39, 4-Amino-N-[(3,5-dimethylphenyl)methyl]-2-(2-furyl)pyrimidine-5-carboxamide]: the Ki came to 0.521 µM at Adenosine A1 receptor; 0.021 µM on Adenosine A2a receptor (Table 9, further testing); 0.753 µM on Adenosine A3 receptor (setting [1]); 2.13 µM at Adenosine A2b receptor.

`COc1cc(CNC(=O)c2cnc(-c3ccco3)nc2N)cc(OC)c1` [Example 5.43, 4-Amino-N-[(3,5-dimethoxyphenyl)methyl]-2-(2-furyl)pyrimidine-5-carboxamide]: the Ki at Adenosine A1 receptor is 4.78 µM; at Adenosine A2a receptor (Table 9, further testing), 0.058 µM; at Adenosine A3 receptor (setting [1]), 5.92 µM; on Adenosine A2b receptor, 5.14 µM.

As to `Nc1nc(-c2ccco2)ncc1C(=O)NCc1ncccc1F` [Example 5.48, 4-Amino-N-[(3-fluoro-2-pyridyl)methyl]-2-(2-furyl)pyrimidine-5-carboxamide], the Ki worked out at 7.96 µM on Adenosine A1 receptor; 0.023 µM at Adenosine A2a receptor (Table 9, further testing); 3.05 µM at Adenosine A3 receptor (setting [1]); 0.42 µM on Adenosine A2b receptor.

Turning to `Nc1nc(-c2ccco2)ncc1C(=O)NCc1cccc2c1OCO2` [Example 5.52, 4-Amino-N-(1,3-benzodioxol-4-ylmethyl)-2-(2-furyl)pyrimidine-5-carboxamide], the Ki was determined as 4.79 µM on Adenosine A1 receptor; 0.011 µM at Adenosine A2a receptor (Table 9, further testing); 3.09 µM at Adenosine A3 receptor (setting [1]); 5.13 µM on Adenosine A2b receptor.

For the compound `Nc1cccnc1CNC(=O)c1cnc(-c2ccco2)nc1N` [Example 5.53, 4-Amino-N-[(3-amino-2-pyridyl)methyl]-2-(2-furyl)pyrimidine-5-carboxamide], the Ki at Adenosine A1 receptor is 6.02 µM; on Adenosine A2a receptor (Table 9, further testing), 0.011 µM; at Adenosine A3 receptor (setting [1]), 4.63 µM; on Adenosine A2b receptor, 0.644 µM.

As for `Cc1cccnc1CNC(=O)c1nnc(-c2ccc(F)cc2)nc1N` [Example 8, 5-Amino-3-(4-fluorophenyl)-N-[(3-methyl-2-pyridyl)methyl]-1,2,4-triazine-6-carboxamide], the Ki on Adenosine A1 receptor worked out at 0.137 µM; on Adenosine A2a receptor (Table 8, Cheng and Prusoff) it was 0.051 µM; at Adenosine A2a receptor (Table 9, further testing), 0.051 µM; at Adenosine A3 receptor (setting [1]), 0.024 µM; at Adenosine A2b receptor, 1.1 µM.

As for `Cc1ccc(CNC(=O)c2cnc(-c3cccc(F)c3)nc2N)cc1` [Example 10, 4-Amino-2-(3-fluorophenyl)-N-(p-tolylmethyl)pyrimidine-5-carboxamide], the Ki on Adenosine A1 receptor was 4.44 µM; on Adenosine A2a receptor (Table 8, Cheng and Prusoff) it was 0.796 µM; at Adenosine A2a receptor (Table 9, further testing) it was 0.796 µM; on Adenosine A3 receptor (setting [1]) it was 1.8 µM; on Adenosine A2b receptor, 8.49 µM.

Consider `Nc1nc(-c2cccc(F)c2)ncc1C(=O)NCc1cccc(Cl)c1` [Example 10.2, 4-Amino-N-[(3-chlorophenyl)methyl]-2-(3-fluorophenyl)pyrimidine-5-carboxamide], for which the Ki turned out to be 0.28 µM at Adenosine A1 receptor; 0.194 µM on Adenosine A2a receptor (Table 8, Cheng and Prusoff); 0.194 µM at Adenosine A2a receptor (Table 9, further testing); 0.582 µM at Adenosine A3 receptor (setting [1]); 1.48 µM at Adenosine A2b receptor.

For the compound `Nc1nc(-c2cccc(F)c2)ncc1C(=O)NCc1cccc(F)c1` [Example 10.3, 4-Amino-2-(3-fluorophenyl)-N-[(3-fluorophenyl)methyl]pyrimidine-5-carboxamide], the Ki came to 0.598 µM at Adenosine A1 receptor; 0.18 µM on Adenosine A2a receptor (Table 8, Cheng and Prusoff); 0.18 µM at Adenosine A2a receptor (Table 9, further testing); 0.504 µM at Adenosine A3 receptor (setting [1]); 1.36 µM on Adenosine A2b receptor.

With `Nc1nc(-c2cccc(F)c2)ncc1C(=O)NCc1ccc(F)cc1` [Example 10.4, 4-Amino-2-(3-fluorophenyl)-N-[(4-fluorophenyl)methyl]pyrimidine-5-carboxamide], the Ki at Adenosine A1 receptor is 3.8 µM; at Adenosine A2a receptor (Table 8, Cheng and Prusoff), 0.959 µM; on Adenosine A2a receptor (Table 9, further testing), 0.959 µM; at Adenosine A3 receptor (setting [1]), 1.82 µM; at Adenosine A2b receptor, 6.06 µM.

`Nc1nc(-c2cccc(F)c2)ncc1C(=O)NCc1ccccc1Cl` [Example 10.5, 4-Amino-N-[(2-chlorophenyl)methyl]-2-(3-fluorophenyl)pyrimidine-5-carboxamide]: the Ki at Adenosine A1 receptor stood at 0.658 µM; on Adenosine A2a receptor (Table 8, Cheng and Prusoff) it was 0.137 µM; at Adenosine A2a receptor (Table 9, further testing), 0.137 µM; on Adenosine A3 receptor (setting [1]), 0.3 µM; at Adenosine A2b receptor, 2.97 µM.

As to `Nc1nc(-c2cccc(F)c2)ncc1C(=O)NCc1cc(F)cc(F)c1` [Example 10.7, 4-Amino-N-[(3,5-difluorophenyl)methyl]-2-(3-fluorophenyl)pyrimidine-5-carboxamide], the Ki on Adenosine A1 receptor is 0.238 µM; on Adenosine A2a receptor (Table 8, Cheng and Prusoff), 0.104 µM; at Adenosine A2a receptor (Table 9, further testing), 0.104 µM; on Adenosine A3 receptor (setting [1]) it was 0.778 µM; at Adenosine A2b receptor, 2.42 µM.

On to `COc1cc(CNC(=O)c2cnc(-c3cccc(F)c3)nc2N)cc(OC)c1` [Example 10.9, 4-Amino-N-[(3,5-dimethoxyphenyl)methyl]-2-(3-fluorophenyl)pyrimidine-5-carboxamide], for which the Ki was found to be 0.811 µM on Adenosine A1 receptor; 0.661 µM at Adenosine A2a receptor (Table 8, Cheng and Prusoff); 0.661 µM at Adenosine A2a receptor (Table 9, further testing); 1.16 µM on Adenosine A3 receptor; 1.17 µM at Adenosine A2b receptor.

Source of the values: patent publication US20200339548A1, “PYRIMIDINE DERIVATIVES AND THEIR USE FOR THE TREATMENT OF CANCER” (Adorx Therapeutics Limited, priority 2017, published 2020).
